The supplement of paper PMC4862054

What was measured:
Assay in all cases: normalised response (% of control), CellTiter-Glo; higher = more viable cells (100 = DMSO, 0 = benzethonium chloride kill control)
Details in all cases: incubation time: 72 h
SK-BR-3 = tested on: SK-BR-3
How it was run: (§1)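 For each plate, 0.1 % DMSO was set to 100 and a positive kill control to 0. Breast cancer cell lines (20 µl suspension) were seeded into 384-well plates already holding compound at 5 concentrations in 10-fold steps over a 10,000-fold range chosen per compound, and incubated for 72 h. CellTox Green fluorescence at 485/520 nm was read before CellTiter-Glo luminescence, which followed 10 min at room temperature. Each value is the normalised signal at one concentration.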

HCC1599 = tested on: HCC1599
How it was run: as §1

DU-4475 = tested on: DU-4475
How it was run: as §1

HCC1143 = tested on: HCC1143
How it was run: as §1

CAL-51 = tested on: CAL-51
How it was run: as §1

BT-549 = tested on: BT-549
How it was run: as §1

MDA-MB-231 = tested on: MDA-MB-231
How it was run: as §1

MDA-MB-453 = tested on: MDA-MB-453
How it was run: as §1

CAL-120 = tested on: CAL-120
How it was run: as §1

MDA-MB-468 = tested on: MDA-MB-468
How it was run: as §1

CAL-148 = tested on: CAL-148
How it was run: as §1

HDQ-P1 = tested on: HDQ-P1
How it was run: as §1

MCF-10A = tested on: MCF-10A
How it was run: as §1

MDA-MB-436 = tested on: MDA-MB-436
How it was run: as §1

HCC1937 = tested on: HCC1937
How it was run: as §1

Hs578T = tested on: Hs578T
How it was run: as §1

BT-474 = tested on: BT-474
How it was run: as §1

MFM-223 = tested on: MFM-223
How it was run: as §1

CAL-85-1 = tested on: CAL-85-1
How it was run: as §1

Row | Compound | normalised response (SK-BR-3) [%] | normalised response (HCC1599) [%] | normalised response (DU-4475) [%] | normalised response (HCC1143) [%] | normalised response (CAL-51) [%] | normalised response (BT-549) [%] | normalised response (MDA-MB-231) [%] | normalised response (MDA-MB-453) [%] | normalised response (CAL-120) [%] | normalised response (MDA-MB-468) [%] | normalised response (CAL-148) [%] | normalised response (HDQ-P1) [%] | normalised response (MCF-10A) [%] | normalised response (MDA-MB-436) [%] | normalised response (HCC1937) [%] | normalised response (Hs578T) [%] | normalised response (BT-474) [%] | normalised response (MFM-223) [%] | normalised response (CAL-85-1) [%]
1 | COc1ccc(-c2cc3c(C)nc(N)nc3n([C@H]3CC[C@H](OCCO)CC3)c2=O)cn1 (1 nM) | 80.9 | 104 | 90.7 | 88.6 | 112 | 101 | 96.5 | 97.4 | 91.1 | 97 | 82.3 | 89.5 | 84.8 | 83.5 | 96.2 | 96.8 | 93.4 | 85.4 | 93.8
2 | Cc1c(Cn2c(C)nc3c(C(=O)O)cc(N4CCOCC4)cc32)cccc1C(F)(F)F (1 nM) | 106 | 73.8 | 99.1 | 108 | 104 | 99.8 | 107 | 100 | 101 | 97.5 | 101 | 103 | 113 | 95.8 | 96 | 98.5 | 95.9 | 104 | 96.9
3 | COc1ccc(-c2cc3c(C)nc(N)nc3n([C@H]3CC[C@H](OCCO)CC3)c2=O)cn1 (10 nM) | 67.2 | 89.3 | 93.2 | 96.5 | 82.8 | 89.6 | 90.7 | 83.5 | 92.3 | 82.6 | 87.8 | 87.2 | 79.8 | 85.4 | 86.2 | 94.8 | 88.8 | 88.9 | 90.8
4 | Cc1c(Cn2c(C)nc3c(C(=O)O)cc(N4CCOCC4)cc32)cccc1C(F)(F)F (10 nM) | 100 | 118 | 102 | 104 | 79.4 | 94.8 | 107 | 100 | 99.5 | 105 | 112 | 101 | 118 | 98.9 | 98.8 | 105 | 101 | 104 | 99.5
5 | CC/C(=C(\c1ccc(O)cc1)c1ccc(OCCN(C)C)cc1)c1ccccc1 [4-hydroxytamoxifen] (1 nM) | 107 | 96 | 99.4 | 95 | 91.2 | 107 | 96.6 | 107 | 98.6 | 98.8 | 102 | 97.7 | 101 | 103 | 99.6 | 108 | 101 | 101 | 100
6 | CC/C(=C(\c1ccc(O)cc1)c1ccc(OCCN(C)C)cc1)c1ccccc1 [4-hydroxytamoxifen] (10 nM) | 98.3 | 93.5 | 103 | 101 | 88.4 | 97.1 | 96.8 | 112 | 98.3 | 108 | 110 | 95.7 | 109 | 90 | 97 | 102 | 96.7 | 104 | 97
7 | CCCCC/C=C/C=C1/C(=O)C=C[C@@H]1C/C=C\CCCC(=O)O [15D-PGJ2] (0.08 nM) | 106 | 101 | 96.6 | 102 | 96.8 | 98.4 | 106 | 111 | 102 | 95.8 | 108 | 104 | 103 | 102 | 94.5 | 99.6 | 102 | 103 | 95.3
8 | CCCCC/C=C/C=C1/C(=O)C=C[C@@H]1C/C=C\CCCC(=O)O [15D-PGJ2] (0.8 nM) | 101 | 93.8 | 102 | 108 | 81.2 | 97.8 | 102 | 97 | 100 | 92.8 | 107 | 98.9 | 104 | 98.2 | 108 | 101 | 103 | 102 | 94.7
9 | O=C(Nc1c[nH]nc1-c1nc2ccc(CN3CCOCC3)cc2[nH]1)NC1CC1 [AT9283] (0.1 nM) | 90 | 109 | 101 | 97 | 81.9 | 89 | 104 | 98.4 | 45.5 | 97.2 | 99.5 | 96.8 | 97.5 | 97.5 | 99.9 | 97.5 | 102 | 100 | 95.8
10 | COc1cc(CCc2cc(NC(=O)c3ccc(N4CC(C)NC(C)C4)cc3)n[nH]2)cc(OC)c1 (stereo not given) [AZD4547] (0.1 nM) | 91.5 | 115 | 97.9 | 101 | 135 | 105 | 101 | 97.5 | 104 | 103 | 82.8 | 99.9 | 92.3 | 102 | 94.2 | 95.3 | 97.5 | 93.2 | 97.9
